Experimental data as given in patent US10160772B2, “5,6-dihydro-4H-benzo[b]thieno-[2,3-d]azepine derivatives” (PULMOCIDE LIMITED, priority 2014, dated 2018).
Read-outs that look alike come from different tables or passages of the source.

Tests used:
Format in all cases: cell-based
RSV B Washington strain = assay: RSV B-induced CPE in Hep2 cells; conditions: human respiratory syncytial virus; for IC50: HEp-2, 144 h, read-out: RSV B CPE IC50
Description: (§1) Biological Testing: Experimental Methods Assessment of RSV Induced CPE in Hep2 Cells
(§2) Hep2 cells were seeded (10^3/well/50 μL) in 384-well plates (Catalogue number 353962, BD Falcon, Oxford, UK) in 5% serum free-DMEM containing 2 mM L-glutamine and 1 mM sodium pyruvate one day before infection. RSV A2 strain (#0709161v, NCPV, Public Health England, Wiltshire) or RSV B Washington strain (VR-1580, ATCC, Manassas, Va. 20108) virus solutions were prepared in serum free-DMEM with 2 mM L-glutamine and 1 mM sodium pyruvate, and then added (50 μL/well) to achieve a final virus concentration of 1 MOI for RSV A and 0.1MOI for RSV B. Simultaneously test compounds (0.5 μL DMSO solution) were added to 100 μL of Hep2 cell culture with virus solution to provide a final DMSO solution of 0.5%. Plates were incubated (37° C./5% CO2) for 5 days for studies using RSV A2 strain or 6 days for those using RSV B strain, and then resazurin sodium salt (5 μL of 0.03% solution; Sigma-Aldrich, Dorset, UK) was added to each well and the plate incubated for a further 6 hr (37° C. and 5% CO2). The fluorescence of each well [545 nm (excitation)/590 nm (emission)] was determined using a multi-scanner (Clariostar: BMG, Buckinghamshire, UK). The percentage inhibition for each well was calculated and the IC50, IC75 and IC90 values were calculated from the concentration-response curve generated for each test compound.

RSV A2 strain = assay: RSV A2-induced CPE in Hep2 cells; conditions: human respiratory syncytial virus; for IC50: HEp-2, 120 h, read-out: RSV A2 CPE IC50; for inhibition at 0.1 µg/mL: at 0.1 μg/mL
Description: as §1, §2

[1] = Cell viability: resazurin assay in Hep2 cells; conditions: human, 5 days incubation
Description: Cell Viability: Resazurin Assay Hep2 cells were seeded in 384-well plates (10^3/well/50 μL; BD Falcon Ref 353962) in FBS DMEM (5%, containing 2 mM L-glutamine and 1 mM sodium pyruvate) one day before experimentation. Serum-free DMEM (50 μL) was added to test wells while for control wells the media was removed and sterile water (100 μL) was added. Test compounds (0.5 μL DMSO solution) were added to give a final DMSO concentration of 0.5%. Hep2 cells were incubated with each test compound for 5 days (37° C./5% CO2 in 5% FBS) and then resazurin stock solution (5 μL; 0.03%) was added to each well and the plate incubated further for a further 6 hrs (37° C./5% CO2). The fluorescence of each well at 545 nm (excitation) and 590 nm (emission) was determined using a multi-scanner (Clariostar: BMG Labtech). The percentage loss of cell viability was calculated for each well relative to vehicle (0.5% DMSO) treatment. Where appropriate, a CC50 value was calculated from the concentration-response curve generated from the concentration-response curve for each test compound.

[2] = test system: RSV A2 F-protein expression; assay: RSV A2 F-protein expression in BEAS2B bronchial epithelial cells; conditions: human respiratory syncytial virus, BEAS-2B, 72 h, read-out: RSV A2 F-protein IC50
Description: Assessment of RSV F Protein Expression in BEAS2B Bronchial Epithelial Cells
An early event which follows the infection of epithelial cells by RSV is the expression of RSV F-protein on the cells' surface. BEAS2B cells (SV40-immortalised human bronchial epithelial cell line) were grown in 96 well plates. Once more than 70% confluent, cells were infected with RSV A2 (#0709161v, NCPV, Public Health England, Wiltshire) at an MOI of 0.01 in clear RPMI-1640 medium (Life technologies, Paisley, UK) with 2% FBS (Life technologies, Paisley, UK), and incubated for 3 days (37° C./5% CO2).
Supernatant was aspirated and the cells were fixed with 4% formaldehyde (100 μL in PBS solution) for 20 min, washed 3 times with washing buffer (200 μL; PBS containing 0.05% Tween-20) and incubated with blocking solution (100 μL; 5% Marvel milk in PBS) for 1 hr. Cells were then washed with washing buffer (200 μL) and incubated for 1 hr at 37° C. with anti-RSV (2F7; mouse monoclonal, lot 160290, Cat. No. ab43812, Abcam plc, Cambridge, UK) F-fusion protein antibody (50 μL; prepared at a 1:1000 dilution in 5% milk/PBS-tween). After washing, cells were incubated with an HRP-conjugated anti-mouse IgG antibody (50 μL prepared at a 1:2000 dilution in 5% milk in PBS; lot 00095437, Cat. No. P0447, Dako UK Ltd, Cambridgeshire, UK) for 1 hr. Cells were washed twice with washing buffer and once with PBS. TMB substrate (100 μL; substrate reagent pack lot 320436, Cat. No. DY999, R&D Systems, Inc. Abingdon, UK) was then added and the reaction was stopped by the addition of aq sulfuric acid (50 μL; 2N). The resultant signal was determined colourimetrically (OD: 450 nm with a reference wavelength of 655 nm) in a microplate reader (Multiskan FC®, ThermoFisher Scientific). Cells were then washed and 1% crystal violet solution (50 μL; lot SLB4576, Cat. No. HT90132-1L, Sigma-Aldrich) was applied for 30 min. After washing with PBS (200 μL) 3 times, 1% SDS (100 μL) was added to each well, and plates were shaken lightly for 1 hr prior to reading the absorbance at 595 nm. The measured OD450-655 readings were corrected for cell number by dividing the OD450-655 by the OD595 readings. The percentage inhibition for each well was calculated and the IC50 value derived from the concentration-response curve generated for each test compound.

[3] = Hep2 cells, RSV B Washington 0.1 MOI, 6 days, resazurin
[4] = HEp-2, Hep2 cells, at 1 μg/mL, read-out: RSV B CPE % Inhibition
[5] = Hep2 cells, RSV A2 1 MOI, 5 days, resazurin
[6] = HEp-2, Hep2 cells, at 0.01 μg/mL (footnote 2), read-out: RSV A2 CPE % Inhibition
[7] = HEp-2, Hep2 cells, read-out: RSV A2 CPE % Inhibition

Compound | IC50 (RSV B Washington strain; [3]) [nM] | IC50 (RSV A2 strain; [5]) [nM] | inhibition at 1 µg/mL (RSV B Washington strain; [4]) [%] | inhibition at 0.01 µg/mL (RSV A2 strain; [6]) [%] | CC50 at 5 days [1] [nM] | IC50 [2] [nM] | IC50 (RSV B Washington strain) [nM] | inhibition at 1 µg/mL (RSV B Washington strain; HEp-2, read-out: RSV B CPE % Inhibition) [%] | IC50 (RSV A2 strain) [nM] | inhibition at 0.01 µg/mL (RSV A2 strain; HEp-2, read-out: RSV A2 CPE % Inhibition) [%] | inhibition at 0.1 µg/mL (RSV A2 strain; [7]) [%]
O=C(Nc1ccc(C(=O)N2CCc3cc(-c4nc5ccccc5[nH]4)sc3-c3ccccc32)cc1)c1cc(C2CC2)cnc1N1CC2(CCOCC2)C1 [Example 6, N-(4-(2-(1H-Benzo[d]imidazol-2-yl)-5,6-dihydro-4H-benzo[b]thieno[2,3-d]azepine-6-carbonyl)phenyl)-5-cyclopropyl-2-(7-oxa-2-azaspiro[3,5]nonan-2-yl)nicotinamide] | 14.9 | 2.6 | 100 | 100 | > 14100 | 0.22 |  |  |  |  | 
CCc1cccc2nc(-c3cc4c(s3)-c3ccccc3N(C(=O)c3ccc(NC(=O)c5cc(C)cnc5N5CC6(CCOCC6)C5)cc3)CC4)[nH]c12 [Example 3, N-(4-(2-(7-Ethyl-1H-benzo[d]imidazol-2-yl)-5,6-dihydro-4H-benzo[b]thieno[2,3-d]azepine-6-carbonyl)phenyl)-5-methyl-2-(7-oxa-2-azaspiro[3.5]nonan-2-yl)nicotinamide] |  |  |  |  | > 14100 | 0.78 | 8.6 | 100 | 2.6 | 100 | 
Cc1ccc2nc(-c3cc4c(s3)-c3ccccc3N(C(=O)c3ccc(NC(=O)c5cccnc5N5CC6(CCOCC6)C5)cc3)CC4)[nH]c2c1 [Example 11, N-(4-(2-(6-methyl-1H-benzo[d]imidazol-2-yl)-5,6-dihydro-4H-benzo[b]thieno[2,3-d]azepine-6-carbonyl)phenyl)-2-(7-oxa-2-azaspiro[3.5]nonan-2-yl)nicotinamide] | 45.7 | 0.28 | 100 |  | > 14700 |  |  |  |  |  | 100
O=C(Nc1ccc(C(=O)N2CCc3cc(-c4nc5ccccc5[nH]4)sc3-c3ccccc32)cc1)c1cccnc1N1CC2(CCOCC2)C1 [Example 7] | 28.7 | 0.12 | 100 |  | > 15000 | 0.94 |  |  |  |  | 100
Cc1cnc(N2CC3(CCOCC3)C2)c(C(=O)Nc2ccc(C(=O)N3CCc4cc(-c5nc6ccccc6[nH]5)sc4-c4ccccc43)cc2)c1 [Example 13, N-(4-(2-(1H-benzo[d]imidazol-2-yl)-5,6-dihydro-4H-benzo[b]thieno[2,3-d]azepine-6-carbonyl)phenyl)-5-methyl-2-(7-oxa-2-azaspiro[3.5]nonan-2-yl)nicotinamide] | 0.99 | 0.085 | 100 |  | > 14700 |  |  |  |  |  | 100
Cc1ccc(C(=O)Nc2ccc(C(=O)N3CCc4cc(-c5nc6ccccc6[nH]5)sc4-c4ccccc43)cc2)c(N2CC3(CCOCC3)C2)n1 [Example 2, N-(4-(2-(1H-Benzo[d]imidazol-2-yl)-5,6-dihydro-4H-benzo[b]thieno[2,3-d]azepine-6-carbonyl)phenyl)-6-methyl-2-(7-oxa-2-azaspiro[3,5]nonan-2-yl)nicotinamide] | 9.6 | 0.23 | 100 | 90 | > 14700 | 1.6 |  |  |  |  | 
O=C(Nc1ccc(C(=O)N2CCc3cc(-c4nc5cccc(F)c5[nH]4)sc3-c3ccccc32)cc1)c1cccnc1N1CC2(CCOCC2)C1 [Example 8, N-(4-(2-(7-fluoro-1H-benzo[d]imidazol-2-yl)-5,6-dihydro-4H-benzo[b]thieno[2,3-d]azepine-6-carbonyl)phenyl)-2-(7-oxa-2-azaspiro[3.5]nonan-2-yl)nicotinamide] | 26.8 | 0.18 | 100 |  | > 14600 |  |  |  |  |  | 100

More lines, main results first:

IC50 (RSV B Washington strain; [3]) [nM] | IC50 (RSV A2 strain; [5]) [nM] | Compound | inhibition at 1 µg/mL (RSV B Washington strain; [4]) [%] | inhibition at 0.01 µg/mL (RSV A2 strain; [6]) [%] | CC50 at 5 days [1] [nM] | IC50 [2] [nM] | IC50 (RSV B Washington strain) [nM] | inhibition at 1 µg/mL (RSV B Washington strain; HEp-2, read-out: RSV B CPE % Inhibition) [%] | IC50 (RSV A2 strain) [nM] | inhibition at 0.01 µg/mL (RSV A2 strain; HEp-2, read-out: RSV A2 CPE % Inhibition) [%] | inhibition at 0.1 µg/mL (RSV A2 strain; [7]) [%]
16 | 0.11 | Cc1cnc(N2CC3(CCOCC3)C2)c(C(=O)Nc2ccc(C(=O)N3CCc4cc(-c5nc6cccc(C)c6[nH]5)sc4-c4ccccc43)cc2)c1 [Example 16, 5-methyl-N-(4-(2-(7-methyl-1H-benzo[d]imidazol-2-yl)-5,6-dihydro-4H-benzo[b]thieno[2,3-d]azepine-6-carbonyl)phenyl)-2-(7-oxa-2-azaspiro[3.5]nonan-2-yl)nicotinamide] | 99 |  | > 14400 |  |  |  |  |  | 100
7.4 | 0.28 | Cc1cnc(N2CC3(CCOCC3)C2)c(C(=O)Nc2ccc(C(=O)N3CCc4cc(-c5nc6cccc(C#N)c6[nH]5)sc4-c4ccccc43)cc2)c1 [Example 18, N-(4-(2-(7-cyano-1H-benzo[d]imidazol-2-yl)-5,6-dihydro-4H-benzo[b]thieno[2,3-d]azepine-6-carbonyl)phenyl)-5-methyl-2-(7-oxa-2-azaspiro[3.5]nonan-2-yl)nicotinamide] | 100 |  | > 14200 |  |  |  |  |  | 100
27.3 | 0.85 | Cc1cc(C(=O)Nc2ccc(C(=O)N3CCc4cc(-c5nc6cccc(C)c6[nH]5)sc4-c4ccccc43)cc2)c(N2CC3(CCOCC3)C2)nc1C [Example 24] | 100 |  | > 14100 |  |  |  |  |  | 100
15 | 0.29 | Cc1cnc(N2CC3(CCOCC3)C2)c(C(=O)Nc2ccc(C(=O)N3CCc4cc(-c5nc6cccc(C)c6[nH]5)sc4-c4ccccc43)c(F)c2)c1 [Example 27, N-(3-fluoro-4-(2-(7-methyl-1H-benzo[d]imidazol-2-yl)-5,6-dihydro-4H-benzo[b]thieno[2,3-d]azepine-6-carbonyl)phenyl)-5-methyl-2-(7-oxa-2-azaspiro[3.5]nonan-2-yl)nicotinamide] | 80 |  | > 14000 |  |  |  |  |  | 90
